Data: PubChem BioAssay AID1919010 (Molecular Pharmacology Branch, DTP, NCI, 2023)

System: Hs578T complex spheroid growth, percent test/control
Assay: Anticancer human tumor Hs578T cell line growth inhibition [AhR];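 also: luminescent viability signal as a proxy for spheroid growth; spheroids exposed to agents for one week after three days of growth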
Details: for IC50: curve of first compound; for viability, T/C: stronger effect = lower value
Outline: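 Agents were dosed in half-log steps down from roughly clinical Cmax, or from 10 microM where Cmax was unknown, alone and with AhR antagonists. Read-out: percent test/control growth of tumor spheroids containing HUVEC and MSC stromal cells.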

[1] = second compound 0.1 µM, first compound 0.0316 µM
[2] = second compound 0.1 µM, first compound 0.1 µM
[3] = second compound 0.1 µM, first compound 0.316 µM
[4] = second compound 0.1 µM, first compound 1 µM
[5] = second compound 0.316 µM, first compound 0.0316 µM
[6] = second compound 0.316 µM, first compound 0.1 µM
[7] = second compound 0.316 µM, first compound 0.316 µM
[8] = second compound 0.316 µM, first compound 1 µM
[9] = second compound 1 µM, first compound 0.0316 µM
[10] = second compound 1 µM, first compound 0.1 µM
[11] = second compound 1 µM, first compound 0.316 µM
[12] = second compound 1 µM, first compound 1 µM
[13] = second compound 3.16 µM, first compound 0.0316 µM
[14] = second compound 3.16 µM, first compound 0.1 µM
[15] = second compound 3.16 µM, first compound 0.316 µM
[16] = second compound 3.16 µM, first compound 1 µM
[17] = second compound 10 µM, first compound 0.0316 µM
[18] = second compound 10 µM, first compound 0.1 µM
[19] = second compound 10 µM, first compound 0.316 µM
[20] = second compound 10 µM, first compound 1 µM
[21] = second compound 0.1 µM, first compound 3.16 µM
[22] = second compound 0.1 µM, first compound 10 µM
[23] = second compound 0.316 µM, first compound 3.16 µM
[24] = second compound 0.316 µM, first compound 10 µM
[25] = second compound 1 µM, first compound 3.16 µM
[26] = second compound 1 µM, first compound 10 µM
[27] = second compound 3.16 µM, first compound 3.16 µM
[28] = second compound 3.16 µM, first compound 10 µM
[29] = second compound 10 µM, first compound 3.16 µM
[30] = second compound 10 µM, first compound 10 µM
[31] = second compound 0.1 µM, first compound 0.00949 µM
[32] = second compound 0.1 µM, first compound 0.03 µM
[33] = second compound 0.1 µM, first compound 0.0949 µM
[34] = second compound 0.1 µM, first compound 0.3 µM
[35] = second compound 0.316 µM, first compound 0.00949 µM
[36] = second compound 0.316 µM, first compound 0.03 µM
[37] = second compound 0.316 µM, first compound 0.0949 µM
[38] = second compound 0.316 µM, first compound 0.3 µM
[39] = second compound 1 µM, first compound 0.00949 µM
[40] = second compound 1 µM, first compound 0.03 µM
[41] = second compound 1 µM, first compound 0.0949 µM
[42] = second compound 1 µM, first compound 0.3 µM
[43] = second compound 3.16 µM, first compound 0.00949 µM
[44] = second compound 3.16 µM, first compound 0.03 µM
[45] = second compound 3.16 µM, first compound 0.0949 µM
[46] = second compound 3.16 µM, first compound 0.3 µM
[47] = second compound 10 µM, first compound 0.00949 µM
[48] = second compound 10 µM, first compound 0.03 µM
[49] = second compound 10 µM, first compound 0.0949 µM
[50] = second compound 10 µM, first compound 0.3 µM

SMILES: CC1COCCN1c1cc(-c2ccnn2C)c2ccnc(-c3ccn[nH]3)c2n1 (stereo not given) + Cc1cncc(-c2nc(NCCc3c[nH]c4ccccc34)c3ncn(C(C)C)c3n2)c1
- IC50 (second compound 0.1 µM): 589 nM
- IC50 (second compound 0.316 µM): 662 nM
- IC50 (second compound 1 µM): 342 nM
- IC50 (second compound 3.16 µM): 104 nM
- IC50 (second compound 10 µM): < 3.16 nM
- viability, T/C (second compound 0.1 µM, first compound 0.00316 µM): 109%
- viability, T/C (second compound 0.1 µM, first compound 0.01 µM): 117%
- viability, T/C [1]: 109%
- viability, T/C [2]: 96.8%
- viability, T/C [3]: 55.8%
- viability, T/C [4]: 45.1%
- viability, T/C (second compound 0.316 µM, first compound 0.00316 µM): 108%
- viability, T/C (second compound 0.316 µM, first compound 0.01 µM): 116%
- viability, T/C [5]: 109%
- viability, T/C [6]: 91.8%
- viability, T/C [7]: 57.2%
- viability, T/C [8]: 46%
- viability, T/C (second compound 1 µM, first compound 0.00316 µM): 109%
- viability, T/C (second compound 1 µM, first compound 0.01 µM): 116%
- viability, T/C [9]: 103%
- viability, T/C [10]: 81.7%
- viability, T/C [11]: 50.6%
- viability, T/C [12]: 38.5%
- viability, T/C (second compound 3.16 µM, first compound 0.00316 µM): 62.9%
- viability, T/C (second compound 3.16 µM, first compound 0.01 µM): 65%
- viability, T/C [13]: 58.8%
- viability, T/C [14]: 51.3%
- viability, T/C [15]: 35.1%
- viability, T/C [16]: 37.7%
- viability, T/C (second compound 10 µM, first compound 0.00316 µM): 4.51%
- viability, T/C (second compound 10 µM, first compound 0.01 µM): 3.84%
- viability, T/C [17]: 4.82%
- viability, T/C [18]: 4.52%
- viability, T/C [19]: 4.47%
- viability, T/C [20]: 7.62%

SMILES: CC1COCCN1c1cc(C2(S(C)(=N)=O)CC2)nc(-c2ccnc3[nH]ccc23)n1 (stereo not given) + Cc1cncc(-c2nc(NCCc3c[nH]c4ccccc34)c3ncn(C(C)C)c3n2)c1
- IC50 (second compound 0.1 µM): > 10000 nM
- IC50 (second compound 0.316 µM): > 10000 nM
- IC50 (second compound 1 µM): > 10000 nM
- IC50 (second compound 3.16 µM): > 10000 nM
- IC50 (second compound 10 µM): < 31.6 nM
- viability, T/C [1]: 120%
- viability, T/C [2]: 115%
- viability, T/C [3]: 111%
- viability, T/C [4]: 102%
- viability, T/C [21]: 92.1%
- viability, T/C [22]: 66.2%
- viability, T/C [5]: 119%
- viability, T/C [6]: 119%
- viability, T/C [7]: 116%
- viability, T/C [8]: 113%
- viability, T/C [23]: 105%
- viability, T/C [24]: 60.4%
- viability, T/C [9]: 106%
- viability, T/C [10]: 107%
- viability, T/C [11]: 118%
- viability, T/C [12]: 111%
- viability, T/C [25]: 98.2%
- viability, T/C [26]: 62.5%
- viability, T/C [13]: 62.5%
- viability, T/C [14]: 57.2%
- viability, T/C [15]: 59.1%
- viability, T/C [16]: 64.5%
- viability, T/C [27]: 55.3%
- viability, T/C [28]: 43.3%
- viability, T/C [17]: 8.31%
- viability, T/C [18]: 8.78%
- viability, T/C [19]: 9.14%
- viability, T/C [20]: 8%
- viability, T/C [29]: 9.08%
- viability, T/C [30]: 11.8%

SMILES: COc1ccc([C@@H](O)c2cc(-c3ncnc4cc(N5CCOCC5)ccc34)c(F)cc2Cl)nn1 + Cc1cncc(-c2nc(NCCc3c[nH]c4ccccc34)c3ncn(C(C)C)c3n2)c1
- IC50 (second compound 0.1 µM): 5740 nM
- IC50 (second compound 0.316 µM): 5830 nM
- IC50 (second compound 1 µM): 5990 nM
- IC50 (second compound 3.16 µM): 2560 nM
- IC50 (second compound 10 µM): < 31.6 nM
- viability, T/C [1]: 108%
- viability, T/C [2]: 115%
- viability, T/C [3]: 104%
- viability, T/C [4]: 86%
- viability, T/C [21]: 61%
- viability, T/C [22]: 40.3%
- viability, T/C [5]: 112%
- viability, T/C [6]: 114%
- viability, T/C [7]: 109%
- viability, T/C [8]: 92.5%
- viability, T/C [23]: 59%
- viability, T/C [24]: 42.1%
- viability, T/C [9]: 103%
- viability, T/C [10]: 118%
- viability, T/C [11]: 102%
- viability, T/C [12]: 84.8%
- viability, T/C [25]: 58.6%
- viability, T/C [26]: 43.4%
- viability, T/C [13]: 68.6%
- viability, T/C [14]: 61%
- viability, T/C [15]: 64.8%
- viability, T/C [16]: 56.2%
- viability, T/C [27]: 48.4%
- viability, T/C [28]: 36.1%
- viability, T/C [17]: 5%
- viability, T/C [18]: 4.23%
- viability, T/C [19]: 5.09%
- viability, T/C [20]: 5.36%
- viability, T/C [29]: 7.09%
- viability, T/C [30]: 9.8%

SMILES: Nc1ncn(C2CC(O)C(CO)S2)c(=O)n1 (stereo not given) + Cc1cncc(-c2nc(NCCc3c[nH]c4ccccc34)c3ncn(C(C)C)c3n2)c1
- IC50 (second compound 0.1 µM): > 300 nM
- IC50 (second compound 0.316 µM): > 300 nM
- IC50 (second compound 1 µM): > 300 nM
- IC50 (second compound 3.16 µM): > 300 nM
- IC50 (second compound 10 µM): < 0.949 nM
- viability, T/C (second compound 0.1 µM, first compound 0.000949 µM): 110%
- viability, T/C (second compound 0.1 µM, first compound 0.003 µM): 119%
- viability, T/C [31]: 117%
- viability, T/C [32]: 108%
- viability, T/C [33]: 104%
- viability, T/C [34]: 92.9%
- viability, T/C (second compound 0.316 µM, first compound 0.000949 µM): 116%
- viability, T/C (second compound 0.316 µM, first compound 0.003 µM): 114%
- viability, T/C [35]: 115%
- viability, T/C [36]: 107%
- viability, T/C [37]: 108%
- viability, T/C [38]: 93.9%
- viability, T/C (second compound 1 µM, first compound 0.000949 µM): 92.2%
- viability, T/C (second compound 1 µM, first compound 0.003 µM): 95.3%
- viability, T/C [39]: 91%
- viability, T/C [40]: 82.4%
- viability, T/C [41]: 88.8%
- viability, T/C [42]: 86.4%
- viability, T/C (second compound 3.16 µM, first compound 0.000949 µM): 46.2%
- viability, T/C (second compound 3.16 µM, first compound 0.003 µM): 54.2%
- viability, T/C [43]: 55.5%
- viability, T/C [44]: 49.4%
- viability, T/C [45]: 47%
- viability, T/C [46]: 55%
- viability, T/C (second compound 10 µM, first compound 0.000949 µM): 14.1%
- viability, T/C (second compound 10 µM, first compound 0.003 µM): 7.61%
- viability, T/C [47]: 7.86%
- viability, T/C [48]: 8.27%
- viability, T/C [49]: 7.59%
- viability, T/C [50]: 7.47%

SMILES: O=C(C=Cn1cnc(-c2cc(C(F)(F)F)cc(C(F)(F)F)c2)n1)NNc1cnccn1 + Cc1cncc(-c2nc(NCCc3c[nH]c4ccccc34)c3ncn(C(C)C)c3n2)c1
- IC50 (second compound 0.1 µM): 402 nM
- IC50 (second compound 0.316 µM): 352 nM
- IC50 (second compound 1 µM): 346 nM
- IC50 (second compound 3.16 µM): 148 nM
- IC50 (second compound 10 µM): < 9.49 nM
- viability, T/C [31]: 113%
- viability, T/C [32]: 100%
- viability, T/C [33]: 93.7%
- viability, T/C [34]: 61.6%
- viability, T/C (second compound 0.1 µM, first compound 0.949 µM): 19.2%
- viability, T/C (second compound 0.1 µM, first compound 3 µM): 19.4%
- viability, T/C [35]: 110%
- viability, T/C [36]: 110%
- viability, T/C [37]: 96.4%
- viability, T/C [38]: 55%
- viability, T/C (second compound 0.316 µM, first compound 0.949 µM): 21.9%
- viability, T/C (second compound 0.316 µM, first compound 3 µM): 19.1%
- viability, T/C [39]: 101%
- viability, T/C [40]: 103%
- viability, T/C [41]: 93.2%
- viability, T/C [42]: 55.3%
- viability, T/C (second compound 1 µM, first compound 0.949 µM): 17.2%
- viability, T/C (second compound 1 µM, first compound 3 µM): 19.2%
- viability, T/C [43]: 84.6%
- viability, T/C [44]: 71.6%
- viability, T/C [45]: 59.4%
- viability, T/C [46]: 39%
- viability, T/C (second compound 3.16 µM, first compound 0.949 µM): 16%
- viability, T/C (second compound 3.16 µM, first compound 3 µM): 14.6%
- viability, T/C [47]: 6.63%
- viability, T/C [48]: 4.78%
- viability, T/C [49]: 2.83%
- viability, T/C [50]: 1.17%
- viability, T/C (second compound 10 µM, first compound 0.949 µM): 1.46%
- viability, T/C (second compound 10 µM, first compound 3 µM): 1.56%
